Measurements taken from US4148795A, “Dithiocarbamate ester bactericides and fungicides” (American Cyanamid Company, priority 1976, dated 1979).
Like-named read-outs stand apart in the source and are kept apart here.

What was measured:
Fusarium lycopersici = experiment: Agar dilution plate; type: cell-based; conditions: Fl; 100 ppm, 72 hours at 23° C
Summary of the method: (§1)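 Step one: blend compound into Sabouraud's dextrose agar to about 100 ppm and let it solidify. Step two: inoculate and incubate around 72 hours at 23° C. Step three: observe growth and record a rating of 0 (no control) or 5 (100% effectiveness), repeating the test twice.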

Pythium de Baryanum = experiment: Agar dilution plate; type: cell-based; conditions: Pd; 100 ppm, 72 hours at 23° C
Summary of the method: as §1

Monilinia fructicola [1] = experiment: Agar dilution plate; type: cell-based; conditions: Mf; 100 ppm, 72 hours at 23° C
Summary of the method: as §1

Rhizoctonia solani = experiment: Agar dilution plate; type: cell-based; conditions: Rs; 100 ppm, 72 hours at 23° C
Summary of the method: as §1

Aspergillus niger [2] = experiment: Agar dilution plate; type: cell-based; conditions: An; 100 ppm, 72 hours at 23° C
Summary of the method: as §1

[3] = test system: Collectotrichum lagenarium; experiment: Agar dilution plate; type: cell-based; conditions: Cl; 100 ppm, 72 hours at 23° C
Summary of the method: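 Compounds were incorporated at about 100 ppm in Sabouraud's dextrose agar, inoculated, and incubated about 72 h at 23 °C. Growth was scored 0 (no control) or 5 (100% effectiveness), and the test was repeated twice.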

Staphylococcus aureus = type: cell-based; conditions: 100 ppm; subcultures 72 hours at 37° C; note: key: 0: No Effect; 9: Kill of Bacteria; 5: Stasis, but not Kill of all Bacteria
Verticillium albo-atrum = experiment: Agar dilution plate; type: cell-based; conditions: Va; 100 ppm, 72 hours at 23° C
Summary of the method: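 Compounds incorporated at about 100 ppm into Sabouraud's dextrose agar, then inoculated with the fungus and incubated about 72 hours at 23° C. Growth scored as 0 (no control) or 5 (100% effectiveness); test repeated twice.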

Phytophthora infestans = type: in vivo; parameters: scale not given here; conditions: Tomato Late Blight, five days
[4] = test system: Stemphylium sarcinaeforme; experiment: Agar dilution plate; type: cell-based; conditions: Ss; 100 ppm, 72 hours at 23° C
Summary of the method: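 Compound incorporated into Sabouraud's dextrose agar at about 100 ppm, inoculated with Stemphylium sarcinaeforme and incubated about 72 hours at 23 °C. Growth scored 0 (no control) or 5 (100% effectiveness), test run in repeat.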

Venturia inaequalis [5] = experiment: Apple scab on field-grown trees; type: in vivo; conditions: 50% wettable powder
From the text: Apple Scab (Venturia inaequalis)
(§2) The compound of Example 13 was applied as a foliar spray for ten applications at weekly intervals from May 1 through July 2, and then two more sprays on a two-week schedule ending on July 31.
(§3) The active compound was applied as a 50% wettable powder having the following composition:
50% Active Compound (Example 13 )
(§4) Rates of 50% wettable applied were:
(§5) 2 pounds/100 gallons of water
(§6) 1 pound/100 gallons of water
(§7) Three tree replicates of each rate
(§8) Variety: Red Delicious were used.

[6] = test system: Colletotrichum lagenarium; conditions: in vivo; note: key: 5: clean, no disease; 4: trace of disease; 3: slight disease; 2: moderate disease; 1: severe disease; 0: like controls
Pseudomonas solaracaerum = type: cell-based; conditions: 100 ppm, 72 hours at 23° C; note: key: 0: no control; 5: 100% effectiveness of the test compound against the specified organism
Xanthomonas vesicatoria = type: cell-based; conditions: 100 ppm; subcultures 72 hours at 37° C; note: key: 0: No Effect; 9: Kill of Bacteria; 5: Stasis, but not Kill of all Bacteria
[7] = test system: Red Delicious apple trees; experiment: Phytotoxicity on field-grown apple trees; type: in vivo; conditions: 50% wettable powder, 2 and 1 pounds/100 gallons of water
From the text: as §2, §3, §4, §5, §6, §7, §8

[8] = test system: Stemphylium sarcinaeforme; experiment: Spore germination inhibition; type: cell-based; conditions: Stemphylium sarciniforme
Summary of the method: (§9)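 Test compounds were suspended in water at 100, 10 or 1 ppm and inoculated with spore suspensions from 7-day (A. niger) or 14-day potato-dextrose agar cultures. Vials were tumbled for 24 hours and then examined for inhibition of mycelial growth.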

Monilinia fructicola [9] = experiment: Spore germination inhibition; type: cell-based
Summary of the method: as §9

Aspergillus niger [10] = experiment: Spore germination inhibition; type: cell-based; conditions: 24 hours
Summary of the method: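 Test compound is suspended in water at 100, 10 or 1 ppm. and dispensed into one dram "opticlear" vials. Each vial receives one drop of a spore suspension taken from seven-day Aspergillus niger cultures grown on potato-dextrose agar. Capped vials rotate on a tumbler for 24 hours, then are inspected for inhibition of mycelial growth.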

Venturia inaequalis [11] = conditions: in vivo
Aerobacter aerogenes = type: cell-based; conditions: 100 ppm; subcultures 72 hours at 37° C; note: key: 0: No Effect; 9: Kill of Bacteria; 5: Stasis, but not Kill of all Bacteria
Piricularia oryzae = type: in vivo; parameters: scale not given here; conditions: Rice Blast, five days
[12] = 24 h, read-out: % Inhibition of Spore Germination

For `CN(C)C(=S)SC(C[N+](=O)[O-])c1ccccc1` (stereo not drawn) [Example 13, α-(Nitromethyl)benzyl Dimethyldithiocarbamate], which “Agar Dilution Plate rating” value (Fusarium lycopersici) is on record?
Its value is 5 (100% effectiveness of the test compound against the specified organism).

And the “Agar Dilution Plate rating” value (Pythium de Baryanum)?
The value was 5 (100% effectiveness of the test compound against the specified organism).

And the “Agar Dilution Plate rating” value (Monilinia fructicola [1])?
The value was 5 (100% effectiveness of the test compound against the specified organism).

And the “Agar Dilution Plate rating” value (Rhizoctonia solani)?
The value was 0.

What about the “Agar Dilution Plate rating” value (Aspergillus niger [2]) of the same compound?
Its value is 0.

And the “Agar Dilution Plate rating” value [3]?
Its value is 5 (100% effectiveness of the test compound against the specified organism).

What about the “Antibacterial Activity rating” value (Staphylococcus aureus) of the same compound?
Its value is 5.

And the “Agar Dilution Plate rating” value (Verticillium albo-atrum)?
The value was 5 (100% effectiveness of the test compound against the specified organism).

And the disease control index (Phytophthora infestans; 150 ppm)?
Its disease control index is 5.

What about the disease control index (Phytophthora infestans; 300 ppm) of the same compound?
Its disease control index is 5.

And the disease control index (Phytophthora infestans; 600 ppm)?
Its disease control index is 5.

And the disease control index (Phytophthora infestans; 1200 ppm)?
The disease control index was 5.

What about the “Agar Dilution Plate rating” value [4] of the same compound?
The value was 5 (100% effectiveness of the test compound against the specified organism).

And the scab on trees (Venturia inaequalis [5]; 1 pound/100 gallons of water, end of season)?
Its scab on trees is “trace of scab”.

What about the scab on trees (Venturia inaequalis [5]; 2 pounds/100 gallons of water, all season) of the same compound?
Its scab on trees is “free of scab all season long”.

What about the disease control index [6] of the same compound?
The disease control index was 5.

What about the “Agar Dilution Plate rating” value (Pseudomonas solaracaerum) of the same compound?
Its value is 0.

What about the “Antibacterial Activity rating” value (Xanthomonas vesicatoria) of the same compound?
Its value is 5.

What about the phytotoxicity [7] of the same compound?
The phytotoxicity was “No phytotoxicity”.

And the inhibition at 100 ppm [8, 12]?
The inhibition at 100 ppm was 100%.

And the inhibition at 1 ppm ([8]; 1 ppm, 24 hours)?
The inhibition at 1 ppm was 100%.

What about the inhibition at 10 ppm ([8]; 10 ppm, 24 hours) of the same compound?
The inhibition at 10 ppm was 100%.

What about the inhibition at 1 ppm (Monilinia fructicola [9]; 1 ppm, 24 hours) of the same compound?
The inhibition at 1 ppm was 100%.

What about the inhibition at 10 ppm (Monilinia fructicola [9]; 10 ppm, 24 hours) of the same compound?
Its inhibition at 10 ppm is 100%.

And the inhibition at 100 ppm (Monilinia fructicola [9]; [12])?
Its inhibition at 100 ppm is 100%.

And the inhibition at 1 ppm (Aspergillus niger [10]; 1 ppm)?
The inhibition at 1 ppm was 100%.

What about the inhibition at 10 ppm (Aspergillus niger [10]; 10 ppm) of the same compound?
Its inhibition at 10 ppm is 100%.

And the inhibition at 100 ppm (Aspergillus niger [10]; 100 ppm)?
Its inhibition at 100 ppm is 100%.

And the disease control index (Venturia inaequalis [11])?
Its disease control index is 5.

And the “Antibacterial Activity rating” value (Aerobacter aerogenes)?
The value was 5.

What about the disease control index (Piricularia oryzae; 150 ppm) of the same compound?
The disease control index was 5.

And the disease control index (Piricularia oryzae; 300 ppm)?
The disease control index was 5.

What about the disease control index (Piricularia oryzae; 600 ppm) of the same compound?
Its disease control index is 5.

And the disease control index (Piricularia oryzae; 1200 ppm)?
Its disease control index is 5.
